This note sets out measurements from patent US10981932B2, “Macrocyclic indole derivatives” (Bayer Aktiengesellschaft, priority 2016, dated 2021).

In data set [1] the test system is SUDHL10. Kind of data set: Induction of caspase-3/7 activity (Caspase-Glo 3/7), SUDHL10. The data set is classed as cell-based. As to conditions: caspase-3/7 induction, SUDHL10 cells, 3 h treatment, median. A digest of the protocol: (§1)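 A 3 h, 37 °C compound incubation precedes the Caspase-Glo 3/7 read. After subtracting medium-only signal, EC50s are fitted against the reference compound's maximal caspase induction.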

For data set [2], the system named is SUDHL10. Put plainly: Anti-proliferative effect (CellTiter-Glo, 72 h), SUDHL10. Format: cell-based. As to conditions: SUDHL10 cells, antiproliferation, 72 h incubation, median, read-out: Antiproli SUDHL10 [M] (median). A digest of the protocol:
(§2)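 Endpoint: CellTiter-Glo luminescence, 10 min after reagent addition. Treatment ran 72 h at 37 °C, humidified. Growth was referenced to a separately plated day 0 plate.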

Another data set addresses MCL-1 (Homo sapiens, UniProt Q07820). Put plainly: Protein-protein interaction assay MCL-1/Noxa BH3 peptide (MCL-1 assay), TR-FRET. The data set is classed as binding. To be noted: MBP-MCL-1 / Noxa BH3-derived peptide, median. A digest of the protocol: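 Steady-state competition, MCL-1/Noxa BH3, TR-FRET readout; 1 nM MBP-MCL-1, 11-point dose series 0.1 nM–20 μM; overnight 4 °C equilibration; 4-parameter IC50.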

The test system of data set [3] is SUDHL5. Put plainly: Anti-proliferative effect (CellTiter-Glo, 72 h), SUDHL5. Format: cell-based. To be noted: SUDHL5 cells, antiproliferation, 72 h incubation, median, read-out: Antiproli SUDHL5 [M] (median). The gist of the method: as §2
In data set [4] the test system is SUDHL5. Put plainly: Induction of cytotoxicity (CellTiter-Glo, 5 h), SUDHL5.
Another data set relates to A2780. Put plainly: Anti-proliferative effect (CellTiter-Glo, 72 h), A2780. Format: cell-based. As to conditions: A2780 cells, median, read-out: IC50 antiproliferation assay A2780 [M] (median). The gist of the method: as §2
On the technique in general: ATP-based viability assays read luminescence as a measure of living cells.

The next data set deals with OPM2. Put plainly: Anti-proliferative effect (CellTiter-Glo, 72 h), OPM2. Format: cell-based. As to conditions: OPM2 cells, median, read-out: IC50 antiproliferation assay OPM2 [M] (median). The gist of the method:
as §2

The test system of data set [5] is SUDHL5. Put plainly: Induction of caspase-3/7 activity (Caspase-Glo 3/7), SUDHL5. Format: cell-based. As to conditions: caspase-3/7 induction, SUDHL5 cells, 3 h treatment, median. The gist of the method:
as §1

For data set [6], the system named is SUDHL10. Put plainly: Induction of cytotoxicity (CellTiter-Glo, 5 h), SUDHL10.
Where [7] appears, read: read-out: Cytotox SUDHL5 [M] (median), SUDHL5 cells, cytotoxicity induction, CellTiter-Glo, 5 h incubation, median.
[8] abbreviates: read-out: Cytotox SUDHL10 [M] (median), SUDHL10 cells, cytotoxicity induction, CellTiter-Glo, 5 h incubation, median.
The mark [9] stands for this setting: Homo sapiens, SU-DHL10, 5 h, read-out: Cytotox SUDHL10 [M] (median), SUDHL10 cells, cytotoxicity induction, CellTiter-Glo, 5 h incubation, median.
Setting [10] is: Homo sapiens, SU-DHL-5, 5 h, read-out: Cytotox SUDHL5 [M] (median), SUDHL5 cells, cytotoxicity induction, CellTiter-Glo, 5 h incubation, median.

SMILES strings stand for the structures. Like-named read-outs stand apart in the source and are kept apart here.

Sequence of MCL-1 (Q07820 whole entry): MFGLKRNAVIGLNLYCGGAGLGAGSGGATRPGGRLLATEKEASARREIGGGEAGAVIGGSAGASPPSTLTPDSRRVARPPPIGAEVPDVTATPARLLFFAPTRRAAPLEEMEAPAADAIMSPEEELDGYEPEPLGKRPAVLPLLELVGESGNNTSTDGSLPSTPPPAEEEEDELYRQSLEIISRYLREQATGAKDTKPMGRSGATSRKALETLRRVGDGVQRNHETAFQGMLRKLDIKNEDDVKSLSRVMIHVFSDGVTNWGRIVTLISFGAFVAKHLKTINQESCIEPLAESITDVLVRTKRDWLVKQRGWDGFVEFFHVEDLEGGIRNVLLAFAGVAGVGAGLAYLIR

With `Cn1nc(COc2ccc(S(C)(=O)=O)cc2)c2c1COCC=CCn1c(C(=O)O)c(CCCOc3cccc4ccccc34)c3cccc-2c31` (single isomer, unassigned) [Example 1-53, (E/Z)-1-methyl-3-{[4-(methylsulfonyl)phenoxy]methyl}-7-[3-(naphthalen-1-yloxy)propyl]-1,10,13,15-tetrahydropyrazolo[4′,3′:9,10][1,6]oxazacycloundecino[8,7,6-hi]indole-8-carboxylic Acid], the EC50 in the data set on SUDHL10 [1] is 7.5 µM; in the data set with SUDHL5 [5] it was 10.2 µM. Further, the IC50 was 7.2e-06 M in the data set with SUDHL10 [2]; 0.0162 µM at MCL-1; 1.36e-05 M in the data set on SUDHL5 [3]; 6.49e-06 M in the data set with SUDHL5 [4] (setting [7]); 2.48e-05 M with A2780; greater than 3.3e-05 M in the data set on OPM2. In addition, the IC50 in the data set on SUDHL10 [6] (setting [8]) was 7.89e-06 M.

`Cn1nc(COc2ccc(S(C)(=O)=O)cc2)c2c1COCCCCn1c(C(=O)O)c(CCCOc3cccc4ccccc34)c3cccc-2c31` (single isomer, unassigned) [Example 1-55, (−)-1-methyl-3-{[4-(methylsulfonyl)phenoxy]methyl}-7-[3-(naphthalen-1-yloxy)propyl]-1,10,11,12,13,15-hexahydropyrazolo[4′,3′:9,10][1,6]oxazacycloundecino[8,7,6-hi]indole-8-carboxylic Acid]: the EC50 with SUDHL10 [1] and in the data set on SUDHL5 [5] was greater than 33 µM each time. Moreover, the IC50 in the data set with SUDHL10 [2] was 9.09e-06 M; against MCL-1, 0.167 µM; in the data set with SUDHL5 [3] it was 1.34e-05 M; with SUDHL5 [4] (setting [7]), greater than 3.3e-05 M; with A2780 (Homo sapiens, A2780, 72 h), 2.59e-05 M; in the data set with OPM2 (Homo sapiens, OPM-2, 72 h), greater than 3.3e-05 M. Moreover, the IC50 with SUDHL10 [6] (setting [9]) was found to be 1.73e-05 M.

With `Cn1nc(COc2ccc(S(C)(=O)=O)cc2)c2c1COCCCCn1c(C(=O)O)c(CCCOc3cccc4ccccc34)c3cccc-2c31` (single isomer, unassigned) [Example 1-56, (+)-1-methy-3-{[4-(methylsulfonyl)phenoxy]methyl}-7-[3-(naphthalen-1-yloxy)propyl]-1,10,11,12,13,15-hexahydropyrazolo[4′,3′:9,10][1,6]oxazacycloundecino[8,7,6-hi]indole-8-carboxylic Acid], the EC50 in the data set with SUDHL10 [1] is 7.13 µM; in the data set with SUDHL5 [5], 5.7 µM. The IC50 is greater than 3.3e-05 M with SUDHL10 [2]; 0.00684 µM on MCL-1; greater than 3.3e-06 M in the data set on SUDHL5 [3]; 5.72e-06 M in the data set with SUDHL5 [4] (setting [7]); greater than 3.3e-05 M in the data set with A2780; greater than 3.3e-05 M in the data set on OPM2. The IC50 in the data set on SUDHL10 [6] (setting [8]) is 2.95e-05 M.

Take `CN1CCCn2c(C(=O)O)c(CCCOc3cccc4ccccc34)c3cccc(c32)-c2c(COc3ccc(C4CCOCC4)cc3)nn(C)c2C1` (single isomer, unassigned) [Example 1-58, (+)-7,9-dimethyl-1-[3-(naphthalen-1-yloxy)propyl]-11-{[4-(tetrahydro-2H-pyran-4-yl)phenoxy]methyl}-4,5,6,7,8,9-hexahydropyrazolo[3′,4′:7,8][1,5]diazecino[9,10,1-hi]indole-2-carboxylic Acid]: the EC50 is 17.3 µM in the data set on SUDHL10 [1] (Homo sapiens, SU-DHL10, 3 h) and 12.2 µM in the data set on SUDHL5 [5] (Homo sapiens, SU-DHL-5, 3 h). The IC50 came out at 7.32e-06 M in the data set with SUDHL10 [2] (Homo sapiens, SU-DHL10, 72 h); 0.0189 µM against MCL-1; 1.17e-05 M with SUDHL5 [3] (Homo sapiens, SU-DHL-5, 72 h); 1.2e-05 M with SUDHL5 [4] (setting [10]); 1.31e-05 M with A2780 (Homo sapiens, A2780, 72 h); 2.01e-05 M with OPM2 (Homo sapiens, OPM-2, 72 h). Besides, the IC50 with SUDHL10 [6] (setting [9]) was determined as 2.14e-05 M.

For `CN1CCCn2c(C(=O)O)c(CCCOc3cccc4ccccc34)c3cccc(c32)-c2c(COc3ccc(C4CCOCC4)cc3)nn(C)c2C1` (single isomer, unassigned) [Example 1-59, (−)-7,9-dimethyl-1-[3-(naphthalen-1-yloxy)propyl]-11-{[4-(tetrahydro-2H-pyran-4-yl)phenoxy]methyl}-4,5,6,7,8,9-hexahydropyrazolo[3′,4′:7,8][1,5]diazecino[9,10,1-hi]indole-2-carboxylic Acid], the EC50 in the data set on SUDHL10 [1] came out at 15.1 µM; in the data set with SUDHL5 [5], 17.9 µM. Besides, the IC50 in the data set on SUDHL10 [2] was 6.64e-06 M; at MCL-1 it was 0.0938 µM; in the data set on SUDHL5 [3], 1.06e-05 M; in the data set on SUDHL5 [4] (setting [7]), 1.24e-05 M; in the data set with A2780, 1.16e-05 M; in the data set with OPM2 it was 1.26e-05 M. Moreover, the IC50 in the data set with SUDHL10 [6] (setting [8]) is 2.01e-05 M.

Take `Cn1nc(COc2ccc(C3=CCOCC3)cc2)c2c1COCCCCn1c(C(=O)O)c(CCCOc3cccc4ccccc34)c3cccc-2c31` (single isomer, unassigned) [Example 1-62, 3-{[4-(3,6-dihydro-2H-pyran-4-yl)phenoxy]methyl}-1-methyl-7-[3-(naphthalen-1-yloxy)propyl]-1,10,11,12,13,15-hexahydropyrazolo[4′,3′:9,10][1,6]oxazacycloundecino[8,7,6-hi]indole-8-carboxylic Acid]: the EC50 came to 13.1 µM with SUDHL10 [1] (Homo sapiens, SU-DHL10, 3 h) and 14.5 µM in the data set with SUDHL5 [5] (Homo sapiens, SU-DHL-5, 3 h). The IC50 with SUDHL10 [2] was determined as 3.36e-06 M; at MCL-1, 0.67 µM; with SUDHL5 [3], 1.02e-05 M; in the data set on SUDHL5 [4] (setting [10]), 1.2e-05 M; in the data set with A2780, 5.49e-06 M; in the data set on OPM2 (Homo sapiens, OPM-2, 72 h) it was 7.6e-06 M. Moreover, the IC50 in the data set on SUDHL10 [6] (setting [8]) was 1.96e-05 M.

With `Cn1nc(COc2ccc(C3=CCOCC3)cc2)c2c1COCCCCn1c(C(=O)O)c(CCCOc3cccc4ccccc34)c3cccc-2c31` (single isomer, unassigned) [Example 1-63, 3-{[4-(3,6-dihydro-2H-pyran-4-yl)phenoxy]methyl}-1-methyl-7-[3-(naphthalen-1-yloxy)propyl]-1,10,11,12,13,15-hexahydropyrazolo[4′,3′:9,10][1,6]oxazacycloundecino[8,7,6-hi]indole-8-carboxylic Acid], the EC50 turned out to be 7.32 µM with SUDHL10 [1] and 7.66 µM in the data set on SUDHL5 [5]. For the same compound, the IC50 in the data set with SUDHL10 [2] turned out to be 7.77e-06 M; on MCL-1 it was 0.00864 µM; in the data set on SUDHL5 [3] it was 3.37e-06 M; in the data set with SUDHL5 [4] (setting [7]), 6.23e-06 M; in the data set on A2780, 1.11e-05 M; in the data set with OPM2 it was 1.18e-05 M. Also, the IC50 with SUDHL10 [6] (setting [8]) was found to be 7.04e-06 M.

As to `COC1(c2ccc(OCc3nn(C)c4c3-c3cccc5c(CCCOc6cccc7ccccc67)c(C(=O)O)n(c35)CCCCOC4)cc2)CCOCC1` (single isomer, unassigned) [Example 1-67, 3-{[4-(4-methoxytetrahydro-2H-pyran-4-yl)phenoxy]methyl}-1-methyl-7-[3-(naphthalen-1-yloxy)propyl]-1,10,11,12,13,15-hexahydropyrazolo[4′,3′:9,10][1,6]oxazacycloundecino[8,7,6-hi]indole-8-carboxylic Acid], the results for the EC50 in the data set on SUDHL10 [1] and with SUDHL5 [5] were 17.8 µM and 16.1 µM, respectively. In addition, the IC50 in the data set with SUDHL10 [2] was determined as 2.95e-06 M; on MCL-1, 0.34 µM; in the data set on SUDHL5 [3] it was 9.8e-06 M; with SUDHL5 [4] (setting [7]) it was 1.22e-05 M; with A2780 it was 6.25e-06 M; in the data set on OPM2, 1.19e-05 M. In addition, the IC50 in the data set on SUDHL10 [6] (setting [8]) was determined as 2.29e-05 M.

With `CC(C)OCc1nn(C)c2c1-c1cccc3c(CCCOc4cccc5ccccc45)c(C(=O)O)n(c13)CCCN(C)C2` (single isomer, unassigned) [Example 1-72, 7,9-dimethyl-1-[3-(naphthalen-1-yloxy)propyl]-1-[(propan-2-yloxy)methyl]-4,5,6,7,8,9-hexahydropyrazolo[3′,4′:7,8][1,5]diazecino[9,10,1-hi]indole-2-carboxylic Acid], the EC50 in the data set with SUDHL10 [1] and with SUDHL5 [5] was greater than 33 µM each time. Besides, the IC50 in the data set with SUDHL10 [2] worked out at 1.37e-05 M; against MCL-1, 0.0126 µM; in the data set on SUDHL5 [3] (Homo sapiens, SU-DHL-5, 72 h) it was 2.38e-05 M; in the data set on SUDHL5 [4] (setting [7]), 8.53e-06 M; in the data set on A2780, 1.85e-05 M; with OPM2 it was 1.53e-05 M. Further, the IC50 in the data set on SUDHL10 [6] (setting [8]) amounted to 1.98e-05 M.

The EC50 is the midpoint of the concentration-response curve. A higher EC50 goes with a less potent agent.
